Laboratory results reported in publication PMC11571054, “Unveiling the GT114 family: Structural characterization of A075L, a glycosyltransferase from Paramecium bursaria chlorella virus‐1 (PBCV‐1)” (Protein Science : A Publication of the Protein Society, 2024).

How the values were obtained:
A075L [1] = biological target: T1, A075L (Paramecium bursaria Chlorella virus 1, UniProt Q89410); assay: ITC; format: binding
T1 construct: recombinant in E. coli BL21 Gold (SeMet in B834); GST tag cut with PreScission protease; GST kept only for mutant D73A
T1 sequence (Q89410 1-280): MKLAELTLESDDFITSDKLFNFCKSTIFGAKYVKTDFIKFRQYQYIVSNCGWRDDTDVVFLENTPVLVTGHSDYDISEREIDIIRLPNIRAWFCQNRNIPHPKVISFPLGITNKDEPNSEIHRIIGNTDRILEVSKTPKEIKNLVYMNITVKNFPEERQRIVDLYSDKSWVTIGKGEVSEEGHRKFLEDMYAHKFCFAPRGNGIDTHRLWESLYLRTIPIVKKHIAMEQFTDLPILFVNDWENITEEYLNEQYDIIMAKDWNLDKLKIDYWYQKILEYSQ

A075L [2] = biological target: T1, A075L; assay: STD-NMR; format: binding; details: 1:40 enzyme-acceptor ratio; 25 °C; binds but is not glycosylated

Compound `O=c1ccn([C@@H]2O[C@H](COP(=O)(O)OP(=O)(O)O[C@H]3OC[C@@H](O)[C@H](O)[C@H]3O)[C@@H](O)[C@H]2O)c(=O)[nH]1` [compound 1, UDP‐α‐D‐Xyl] has a Kd (A075L [1]) of 31 µM.

For `CCCCCCCCO[C@@H]1O[C@@H](C)[C@@H](O)[C@@H](O)[C@@H]1O[C@H]1O[C@H](CO)[C@H](O)[C@H](O)[C@H]1O` [compound 5, α‐D‐Gal‐(1 → 2)‐α‐L‐Fuc‐Octyl], the STD-NMR (A075L [2]) was “despite their lower reactivity, both disaccharides can be accommodated in the binding site”.
